Assay [1] addresses T1, GPCR GPR40 (human) (Homo sapiens, UniProt O14842).
T1 construct: expressed in transfected cells; host or cells: HEK293
The experiment in a line: In vitro FLIPR assay with recombinant HEK293 cells which express the GPCR GPR40 (intracellular Ca2+). In kind it is cell-based. To be noted: recombinant HEK293 cells expressing human GPR40; 100% = 10 μM linoleic acid reference agonist; read-out: hGPR40 EC50. How it is done:
In Vitro FLIPR Assay with Recombinant Cells which Express the GPCR GPR40
Function-testing assays were performed by means of the FLIPR technique (“Fluorescence Imaging Plate Reader”, Molecular Devices Corp.). For this purpose, agonist-induced changes were determined in the intracellular concentration of Ca^2+ in recombinant HEK293 cells which expressed the GPCR GPR40 (human).
For the studies, cells were sown into 96-well microtiter plates (60 000 cells/well) and left to grow overnight. The medium was removed and the cells were incubated in buffer which contained the fluorescent dye Fluo-4. After this loading with dye, the cells were washed, test substance was added and changes were measured in the intracellular Ca^2+ concentration in the FLIPR instrument. Results were presented as the percentage change relative to the control (0%: no test substance added; 100%: 10 μM linoleic acid reference agonist added) and used for calculation of dose/efficacy curves, and the EC50 values were thus determined. The mean effective concentration (EC50) is the dose at which a half-maximum effect is observed.

The subject of assay [2] is human S1P1 receptor. The experiment in a line: Determination of S1P1 receptor activation (intracellular calcium release, FLIPR, CHO cells). To be noted: compound at 10 μM; in percent of activation by 100 nM S1P. The class given is cell-based. How it is done:
Determination of S1P1 Receptor Activation
The activation of the S1P1 receptor by the chemical compounds described in the present invention disclosure was determined via the S1P1 receptor-mediated release of intracellular calcium.
The CHO (chinese hamster ovarian) cells used here was stably overexpressed with the human S1P1 receptor (Flp-In System, Invitrogen). In order to amplify the signal transduction of the receptor in the direction of a cellular calcium response, a receptor modified at the C terminus was used, which contained the sequence of a modified G protein (Gαi4qi4) (WO 02/04665). The changes in intracellular calcium were determined by means of the calcium-sensitive fluorescent dye Fluo-4 (Invitrogen) in an appropriate plate reader (FLIPR, […]).
To prepare the measurement, the cells were sown in 96-well plates (Becton Dickinson, Biocoat cellware, poly-D-lysine coated, #354640) with 40 000 cells per cavity between 18 and 24 hours before the calcium measurement. For the intervening period, the cells were cultivated in an incubator under 95% air humidity with 5% CO2 gas in a medium based on F-12 Glutamax (Gibco #31765), which was additionally supplemented with 1% (vol/vol) penicillin/streptomycin (PAN, #P06-07100), 10% (vol/vol) fetal calf serum (Hyclone charcoal/dextran treated FBS #SH30068) and Hygromycin B (final concentration 300 mg/l; Invitrogen, #10687-010).
For calcium measurement, the cells were laden beforehand with the acetoxymethyl ester derivative of the Fluo-4 dye (Fluo-4 AM, Invitrogen, #F14202) for 60 min. During the loading, which took place in the incubator under the conditions specified above, the cells were incubated with an HBSS buffer (Hanks' Balanced Salt Solution; Invitrogen #14065049) which had been supplemented with Fluo-4 AM (acetoxymethyl ester of Fluo-4; 2 μM; all figures are based on final concentrations), Pluronic® F-127 (0.05% vol/vol; Invitrogen, #P-3000 MP), HEPES (20 mM; Gibco #15630), probenecid (2.5 mM; Sigma #P-8761) and bovine serum albumin (0.05%; Sigma #A-6003). This buffer was finally adjusted to a pH of 7.5 with sodium hydroxide.
During the loading with Fluo-4, the acetoxymethyl ester is cleaved by intracellular esterases, and so there is intracellular accumulation of the dye. The loading of the cells was ended by washing three times (Tecan, Power Washer) with a wash buffer.
The wash buffer was also used for the later fluorescence-based calcium measurement. In this case, the laden and washed cells were stimulated with the compounds described (dissolved in DMSO; maximum final DMSO concentration 0.3%) in different concentrations. […]
All measurements were conducted as triplicates, and the individual values thereof were averaged for further calculation. The percentage activation of the S1P1 receptor, which was caused in some cases by the compounds described, was calculated using the S1P-related calcium response (positive control). Before this calculation, a background correction took place, by subtracting the value of the base control (DMSO control) from all other fluorescence values detected.
Using the specific cellular fluorescence response at different concentrations of the compounds used, concentrations were calculated at which the cell response was at half maximum (EC50 value). […] Here too, the percentage activation of the receptor was calculated using the positive control (S1P, 100 nM) and base control (DMSO control).
In general terms: A change in cytosolic calcium serves as a functional read-out for many receptors and channels.

The text below walks through data of US20130172248A1, “3-[4-(PHENYLAMINOOXALYLAMINO)PHENYL]HEX-4-YNOIC ACIDS, PROCESS FOR PREPARATION THEREOF AND USE THEREOF AS A MEDICAMENT” (priority 2012, published 2013).

As a reminder, the EC50 is the midpoint of the concentration-response curve.

Structures are written as SMILES.

T1 sequence (O14842 whole entry): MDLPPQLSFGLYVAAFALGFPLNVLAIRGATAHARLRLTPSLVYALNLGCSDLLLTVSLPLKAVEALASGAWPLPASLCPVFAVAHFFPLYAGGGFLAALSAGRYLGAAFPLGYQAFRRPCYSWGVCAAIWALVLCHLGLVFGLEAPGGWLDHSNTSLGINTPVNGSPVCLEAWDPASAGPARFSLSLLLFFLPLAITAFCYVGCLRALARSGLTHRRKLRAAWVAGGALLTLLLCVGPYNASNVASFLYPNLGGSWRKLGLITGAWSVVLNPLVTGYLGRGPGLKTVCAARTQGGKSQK

On to `CC#C[C@H](CC(=O)O)c1ccc(NC(=O)C(=O)Nc2cccc(C(C)C)c2)cc1` [compound 9, (R)-3-{4-[(3-isopropylphenylaminooxalyl)amino]phenyl}hex-4-ynoic acid, reference compound], for which the EC50 in assay [1] came to 2070 nM.
For `CC#C[C@@H](CC(=O)O)c1ccc(NC(=O)C(=O)Nc2cc(C(F)(F)F)ccc2C(F)(F)F)cc1` [Example 1, (S)-3-{4-[(2,5-bis(trifluoromethyl)phenylaminooxalyl)amino]phenyl}hex-4-ynoic acid], the EC50 in assay [1] was 0.4 nM. Moreover, the “S1P1 receptor activation, % activation” value in assay [2] stood at 0%.
As for `CC#C[C@@H](CC(=O)O)c1ccc(NC(=O)C(=O)Nc2cccc(C(C)(C)C)c2)cc1` [Example 2, (S)-3-{4-[(3-tert-butylphenylaminooxalyl)amino]phenyl}hex-4-ynoic acid], the EC50 in assay [1] came out at 2 nM. Also, the “S1P1 receptor activation, % activation” value in assay [2] was found to be 1%.
Taken in the same sequence, the figures for `CC#C[C@@H](CC(=O)O)c1ccc(NC(=O)C(=O)Nc2cccc(C(C)C)c2)cc1` [Example 4, (S)-3-{4-[(3-isopropylphenylaminooxalyl)amino]phenyl}hex-4-ynoic acid] were 7 nM and 0%.
Take `CC#C[C@@H](CC(=O)O)c1ccc(NC(=O)C(=O)Nc2cc(C(F)(F)F)ccc2C)cc1` [Example 3, (S)-3-{4-[(2-methyl-5-trifluoromethylphenylaminooxalyl)amino]phenyl}hex-4-ynoic acid]: in assay [1], the EC50 was determined as 4 nM. The “S1P1 receptor activation, % activation” value in assay [2] was 1%.
Turning to `CC#C[C@H](CC(=O)O)c1ccc(NC(=O)C(=O)Nc2cccc(C(C)(C)C)c2)cc1` [compound 7, (R)-3-{4-[(3-tert-butylphenylaminooxalyl)amino]phenyl}hex-4-ynoic acid, reference compound], the EC50 in assay [1] was determined as 1550 nM.
Consider `CC#C[C@H](CC(=O)O)c1ccc(NC(=O)C(=O)Nc2cc(C(F)(F)F)ccc2Cl)cc1` [compound 10, (R)-3-{4-[(2-chloro-5-trifluoromethylphenylaminooxalyl)amino]phenyl}hex-4-ynoic acid, reference compound], for which the EC50 in assay [1] was found to be 2290 nM.
Same read-out and setting: the value for `CC#C[C@H](CC(=O)O)c1ccc(NC(=O)C(=O)Nc2cc(C(F)(F)F)ccc2C)cc1` [compound 8, (R)-3-{4-[(2-methyl-5-trifluoromethylphenylaminooxalyl)amino]phenyl}hex-4-ynoic acid, reference compound] was 1780 nM.
Take `CC#C[C@H](CC(=O)O)c1ccc(NC(=O)C(=O)Nc2cc(C(F)(F)F)ccc2C(F)(F)F)cc1` [compound 6, (R)-3-{4-[(2,5-bis(trifluoromethyl)phenylaminooxalyl)amino]phenyl}hex-4-ynoic acid, reference compound]: the EC50 in assay [1] turned out to be 734 nM.
`CC#C[C@@H](CC(=O)O)c1ccc(NC(=O)C(=O)Nc2cc(C(F)(F)F)ccc2Cl)cc1` [Example 5, (S)-3-{4-[(2-chloro-5-trifluoromethylphenylaminooxalyl)amino]phenyl}hex-4-ynoic acid]: the EC50 in assay [1] was determined as 2 nM. Further, the “S1P1 receptor activation, % activation” value in assay [2] came to 0%.
